# Experimental data as given in PubChem BioAssay AID651717 (Broad Institute, 2012).
# System: mESC Bmi1-luciferase reporter, firefly/renilla ratio, 24 h
# Experiment: compounds raising Bmi1 reporter signal – mouse embryonic stem cells, luciferase, cherry-pick, esBAF inhibitor project, dose response (AID 651717);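 further: luciferase knocked into Bmi1 locus with EF-1a renilla as cell number control; rising ratio signals esBAF inhibition which derepresses Bmi1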
row,Compound,AC40 [µM]
1,CO[C@@H]1CN(C)C(=O)c2ccc(NC(=O)Nc3ccc4c(c3)OCO4)cc2OC[C@@H](C)NC[C@@H]1C,2.93
2,COc1ccc(C)c2sc(=NC(=O)c3cccc(N4C(=O)CCC4=O)c3)n(C)c12,1.81
3,CC(C)C1CCN(C(=O)C2CCC(=O)N(C3CCCCCC3)C2)CC1 (configuration not stated),9.83
4,N/C(=N\OC(=O)c1cccnc1)c1ccccc1Cl,23.6
5,Cc1ccnc(NC(=O)CCCc2ccccc2)c1,5.74
6,Oc1ccc(-c2nccc(-c3ccccn3)n2)cc1,3.66
7,CN(CCc1ccccn1)C(=O)CCc1nnc(CCCc2ccccc2)o1,4.93
8,COc1ccc2[nH]cc(C(=O)CNc3nc(C)cs3)c2c1,10.3
9,CC(=O)Nc1ccc2nc(SCC(=O)Nc3ccc(N4CCOCC4)c(Cl)c3)sc2c1,3.57
10,CCCc1nc2c3ccccc3ccn2c1Cc1ccc(C)cc1,0.443
11,O=C(Nc1ccc(N2CCCC2)cc1)c1cccc(Cl)c1Cl,28.2
12,Fc1ccc(CSc2ccc(-c3cccs3)nn2)cc1,5.03
13,Cc1noc(C)c1C(=O)Nc1nc2ccccc2s1,3.83
14,Cc1ccc(Nc2cccccc2=O)cc1,3.88
15,O=C(c1ccc2ccccc2c1)N1CCc2ccccc21,8.41
16,CC(C)(C)C(=O)N1CCN(c2nc3ccc(Br)cc3s2)CC1,1.53
17,C#CCSc1nnc(-c2ccc(O)cc2)o1,8.15
18,Cc1ccc(C)c(NC(=O)c2cc(-c3cc(C)c(C)cc3O)n[nH]2)c1,3.77
19,CN(C)c1ccc(N=Cc2nc(-c3ccccc3)oc2OC(=O)c2cccc(Br)c2)cc1,1.2
20,Oc1cccc(C=NNc2ccccn2)c1,5.37
21,O=C(c1ccc(Cl)cc1)c1cnc(-c2ccc(Cl)cc2)s1,2.84

row,Compound,AC40 [µM]
1,CCCCCCCSc1ncnc2[nH]ncc12,17.1
2,COc1ccc(Cc2nc(-c3cccc(C)c3)no2)cc1,3.63
3,COc1cccc(Nc2nc(-c3sc(C)nc3C)cs2)c1,8.61
4,CCCCc1nc2cc(C(=O)N3CCN(c4nc(C)cnc4C)CC3)ccc2o1,2.43
5,Cc1cccc(COc2ccc(/C=N/NC(=O)c3nnn(-c4nonc4N)c3CN3CCCCC3)cc2)c1,34.2
6,Cc1ccccc1-c1nnc(-c2cccc3ccccc23)o1,0.85
7,Cc1csc(SCCN2C(=O)c3ccccc3C2=O)n1,3.17
8,O=C(CC(NC(=O)OCc1ccccc1)c1nn[nH]n1)OCc1ccccc1 (configuration not stated),2.6
9,Cc1cccc(Oc2coc3cc(O)ccc3c2=O)c1,15.7
10,O=C(NC1CCCCCCC1)c1cccc(Cl)c1,10.7
11,CO[C@@H]1CN(C)C(=O)c2ccc(NC(=O)Nc3ccc4c(c3)OCO4)cc2OC[C@H](C)NC[C@H]1C,6.56
12,COc1ccc(-c2cc(C(=O)N3CCCC3)no2)cc1OC,7.36
13,Cc1ccc(C(=O)Nc2ccc3c(c2)OCO3)cc1S(=O)(=O)N1CCCCC1,1.69
14,C1=NN(c2ccccc2)C=NN1c1ccccc1,1.17
15,O=C(Nc1ccccn1)c1ccc(Cl)c(S(=O)(=O)N2CCCC2)c1,14.6
16,CCC(=O)Nc1cccc(-c2nc3ccccc3o2)c1,15.7
17,CS(=O)(=O)c1cccc(-c2csc(N3CCC(C(N)=O)CC3)n2)c1,< 0.26
18,Nc1cc2c(cc1Cl)-c1ccc(Cl)cc1C2,11.3
19,COc1ccc(C(=O)Nc2ccc3nc(C)c(C)nc3c2)cc1,8.3
20,Cc1ccc(NC(=O)Cc2noc3ccccc23)cc1,2.47
21,CNC(=O)c1ccc(-c2ccccc2)s1,5.62

row,Compound,AC40 [µM]
1,CC1(C)CNC(=O)c2sc(NC(=O)c3ccccc3)nc2C1,4.76
2,Cc1ccccc1CNC(=O)Nc1ccc(Cl)cc1,15.1
3,CCc1ccc2cc3c(cc2n1)C(=O)c1ccccc1-3,2.32
4,COc1ccccc1NC(=O)CSc1nc2sc3c(c2c(=O)n1-c1ccccc1)CCN(C)C3,19.1
5,COc1ccc2nc(C(c3ccc(C)cc3)n3c(-c4ccccc4Br)nc4ccccc43)[nH]c2c1 (configuration not stated),0.494
6,O=C(Cc1ccccc1)N/N=C/c1ccccc1OCc1ccc(Cl)cc1,4.61
7,COc1cc2ccccc2cc1C(=O)NC1CCCC1,8.82
8,COc1ccc(/C=N/NC(=O)c2cccs2)c2ccccc12,9.35
9,COC(=O)Cc1csc(Nc2ccccc2Cl)n1,6.92
10,S=c1[nH]nc(SCc2ccccc2)c2[nH]cnc12,5.52
11,COc1ccccc1C(=O)Nn1cnc2ccccc2c1=O,8.5
12,Cc1ccc(NC(=O)C2CCCN(C(=O)c3ccc(Cl)cc3)C2)cc1C (configuration not stated),6.09
13,CCc1sc(C(=O)Nc2ncccc2C)cc1C,20.1
14,Cc1sc2c(c1C)CN(C(C)(C)C)CN2C(=O)c1ccccc1,1.37
15,O=C(O)c1ccc2c(c1)C(=O)N(CCc1c[nH]c3ccccc13)C2=O,5.77
16,COc1ccccc1-c1cnc(C(O)c2ccc(C)cc2)[nH]1 (configuration not stated),10.2
17,COc1cccc(N(C(=O)c2cccs2)c2nc3ccccc3s2)c1,3.76
18,COc1ccc(CCn2nnc3ccccc3c2=O)cc1OC,4.92
19,O=S(=O)(Nc1cccc(-c2ccc(N3CCCCCC3)nn2)c1)c1ccc(C(F)(F)F)cc1,13.1
20,COc1ccc(S(=O)(=O)Nc2cc(C(=O)NC3CCCCCC3)ccc2N2CCOCC2)cc1,7.61
